Data on eleven compounds can be found in ChEMBL document CHEMBL3259648, “Synthesis and in vitro evaluation of anti-inflammatory activity of ester and amine derivatives of indoline in RAW 264.7 and peritoneal macrophages” (Bioorg Med Chem Lett, 2014).

In data set [1] the target is T1, Acetylcholinesterase (Bos taurus, UniProt P23795).
T1 sequence (P23795 whole entry): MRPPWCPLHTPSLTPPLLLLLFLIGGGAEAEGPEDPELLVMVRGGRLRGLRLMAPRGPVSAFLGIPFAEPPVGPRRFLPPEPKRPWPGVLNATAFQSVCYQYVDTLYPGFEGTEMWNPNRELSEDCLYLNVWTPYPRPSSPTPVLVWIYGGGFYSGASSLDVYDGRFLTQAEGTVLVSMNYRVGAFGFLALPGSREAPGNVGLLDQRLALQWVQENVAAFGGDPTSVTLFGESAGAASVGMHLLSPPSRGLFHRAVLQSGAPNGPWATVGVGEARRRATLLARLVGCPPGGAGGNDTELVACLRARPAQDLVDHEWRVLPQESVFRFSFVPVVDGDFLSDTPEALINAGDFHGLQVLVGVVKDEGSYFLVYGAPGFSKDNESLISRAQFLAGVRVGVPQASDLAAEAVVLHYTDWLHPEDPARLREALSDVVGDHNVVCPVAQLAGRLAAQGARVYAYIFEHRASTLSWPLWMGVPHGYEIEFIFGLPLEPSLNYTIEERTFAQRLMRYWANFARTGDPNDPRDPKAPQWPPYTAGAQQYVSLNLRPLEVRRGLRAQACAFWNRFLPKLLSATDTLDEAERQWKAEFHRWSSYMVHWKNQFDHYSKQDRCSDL
Put plainly: Inhibition of AChE in bovine erythrocytes using acetylthiocholine iodide as substrate by Ellman's method. In general terms: In Ellman's method for cholinesterases, released thiocholine reacts with DTNB.

Data set [2] concerns RAW264.7. Put plainly: Antiinflammatory activity in mouse RAW264.7 cells assessed as reduction in LPS-induced NaNO2 release at 1 nM treated for 30 mins prior to LPS challenge measured after 24 hrs by griess reaction assay relative to budesonide. In kind it is functional. A general note: Nitrite, measured by Griess reagent, commonly stands in for NO production.
For data set [3], the system named is RAW264.7. Put plainly: Antiinflammatory activity in mouse RAW264.7 cells assessed as reduction in LPS-induced NaNO2 release at 1 nM treated for 30 mins prior to LPS challenge measured after 24 hrs by griess reaction assay relative to melatonin. In kind it is functional.
Data set [4] deals with RAW264.7. Put plainly: Cytotoxicity against mouse RAW264.7 cells assessed as cell viability at 10 pM to 10 uM by MTT assay. In kind it is cell-based. Background: Tetrazolium dyes change colour on reduction, which living cells bring about.
Data set [5] relates to Peritoneal macrophage cell. Put plainly: Antiinflammatory activity in C57bl/6 mouse peritoneal macrophages assessed as reduction in LPS-induced TNF-alpha production at >=10 pM treated for 30 mins prior to LPS challenge measured after 6 hrs by ELISA. Type of data set: functional, cell-based.
The subject of data set [6] is RAW264.7. Put plainly: Antiinflammatory activity in mouse RAW264.7 cells assessed as reduction in LPS-induced NaNO2 release at >=1 nM treated for 30 mins prior to LPS challenge measured after 24 hrs by griess reaction assay. Type of data set: functional, cell-based.
Data set [7] deals with Cholinesterase (Equus caballus, UniProt P81908). Put plainly: Inhibition of BuChE in equine serum using butylthiocholine iodide as substrate by Ellman's method.
Sequence of Cholinesterase (P81908 whole entry): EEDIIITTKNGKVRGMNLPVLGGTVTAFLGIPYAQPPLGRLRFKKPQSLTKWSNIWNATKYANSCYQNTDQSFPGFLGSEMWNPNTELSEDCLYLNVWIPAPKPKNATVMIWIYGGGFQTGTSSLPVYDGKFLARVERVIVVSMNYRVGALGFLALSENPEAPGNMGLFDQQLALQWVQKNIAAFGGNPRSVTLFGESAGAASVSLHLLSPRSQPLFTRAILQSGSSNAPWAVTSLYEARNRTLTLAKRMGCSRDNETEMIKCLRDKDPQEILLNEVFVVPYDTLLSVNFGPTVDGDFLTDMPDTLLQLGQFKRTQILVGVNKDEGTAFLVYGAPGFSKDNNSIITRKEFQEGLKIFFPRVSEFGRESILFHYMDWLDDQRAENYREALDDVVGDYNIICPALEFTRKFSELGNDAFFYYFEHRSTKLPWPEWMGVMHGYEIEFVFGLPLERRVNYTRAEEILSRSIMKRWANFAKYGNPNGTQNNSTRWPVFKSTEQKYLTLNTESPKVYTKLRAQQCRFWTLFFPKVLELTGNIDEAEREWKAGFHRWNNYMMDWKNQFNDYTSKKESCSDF
In data set [8] the test system is Peritoneal macrophage cell. Put plainly: Antiinflammatory activity in C57bl/6 mouse peritoneal macrophages assessed as reduction in LPS-induced IL-6 production at >=10 nM treated for 30 mins prior to LPS challenge measured after 24 hrs by ELISA. Type of data set: functional, cell-based.
Data set [9] in a line: Cytotoxicity against C57bl/6 mouse peritoneal macrophages assessed as cell viability at 10 pM to 10 uM by MTT assay. As to conditions: peritoneal macrophage cell. Type of data set: cell-based.
Data set [10] relates to RAW264.7. Put plainly: Antiinflammatory activity in mouse RAW264.7 cells assessed as reduction in LPS-induced NaNO2 release at >=10 pM treated for 30 mins prior to LPS challenge measured after 24 hrs by griess reaction assay. Type of data set: functional, cell-based.
Data set [11] deals with Peritoneal macrophage cell. Put plainly: Antiinflammatory activity in C57bl/6 mouse peritoneal macrophages assessed as reduction in LPS-induced IL-6 production at >=10 pM treated for 30 mins prior to LPS challenge measured after 24 hrs by ELISA. Type of data set: functional, cell-based.
Data set [12] has as its system RAW264.7. Put plainly: Antiinflammatory activity in mouse RAW264.7 cells assessed as reduction in LPS-induced NaNO2 release at 10 pM treated for 30 mins prior to LPS challenge measured after 24 hrs by griess reaction assay relative to budesonide. Type of data set: functional.
Data set [13] relates to RAW264.7. Put plainly: Antiinflammatory activity in mouse RAW264.7 cells assessed as reduction in LPS-induced NaNO2 release at 10 pM treated for 30 mins prior to LPS challenge measured after 24 hrs by griess reaction assay relative to melatonin. In kind it is functional.
Data set [14] deals with Peritoneal macrophage cell. Put plainly: Antiinflammatory activity in C57bl/6 mouse peritoneal macrophages assessed as reduction in LPS-induced TNF-alpha production at >=1 pM treated for 30 mins prior to LPS challenge measured after 6 hrs by ELISA. In kind it is functional, cell-based.
In data set [15] the test system is Peritoneal macrophage cell. Put plainly: Antiinflammatory activity in C57bl/6 mouse peritoneal macrophages assessed as reduction in LPS-induced IL-6 production at >=1 nM treated for 30 mins prior to LPS challenge measured after 24 hrs by ELISA. Type of data set: functional, cell-based.
Data set [16] relates to Peritoneal macrophage cell. Put plainly: Antiinflammatory activity in C57bl/6 mouse peritoneal macrophages assessed as reduction in LPS-induced TNF-alpha production at >=1 uM treated for 30 mins prior to LPS challenge measured after 6 hrs by ELISA. Type of data set: functional, cell-based.
The species named for data set [17] is Mus musculus. Put plainly: Inhibition of JNK phosphorylation in LPS-activated C57bl/6 mouse peritoneal macrophages at 0.1 nM treated for 30 mins prior to LPS challenge by immunoblot analysis.
In data set [18] the target is T2, Inhibitor of nuclear factor kappa-B kinase subunit alpha (Mus musculus) (UniProt Q60680).
T2 sequence (whole entry): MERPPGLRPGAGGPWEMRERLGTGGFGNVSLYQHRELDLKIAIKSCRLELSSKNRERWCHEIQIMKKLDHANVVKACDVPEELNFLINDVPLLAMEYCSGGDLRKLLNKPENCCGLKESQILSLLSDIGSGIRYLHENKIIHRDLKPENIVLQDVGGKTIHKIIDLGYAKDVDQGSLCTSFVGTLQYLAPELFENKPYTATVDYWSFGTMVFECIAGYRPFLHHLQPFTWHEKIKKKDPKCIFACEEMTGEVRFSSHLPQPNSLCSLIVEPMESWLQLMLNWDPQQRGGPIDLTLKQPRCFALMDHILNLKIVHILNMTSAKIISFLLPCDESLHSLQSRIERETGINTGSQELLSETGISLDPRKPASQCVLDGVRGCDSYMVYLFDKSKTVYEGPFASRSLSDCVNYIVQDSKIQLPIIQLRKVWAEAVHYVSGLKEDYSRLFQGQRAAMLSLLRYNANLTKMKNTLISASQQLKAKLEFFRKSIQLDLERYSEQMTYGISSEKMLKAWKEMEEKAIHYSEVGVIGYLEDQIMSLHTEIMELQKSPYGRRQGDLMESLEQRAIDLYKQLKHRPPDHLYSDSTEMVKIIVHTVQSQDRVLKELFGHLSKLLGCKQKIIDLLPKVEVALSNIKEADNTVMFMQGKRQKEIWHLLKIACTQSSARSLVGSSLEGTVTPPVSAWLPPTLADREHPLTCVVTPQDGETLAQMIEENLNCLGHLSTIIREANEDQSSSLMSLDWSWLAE
Put plainly: Inhibition of IkappaB alpha degradation in LPS-activated C57bl/6 mouse peritoneal macrophages at 0.1 nM treated for 30 mins prior to LPS challenge by immunoblot analysis.

Data set [19] addresses MAP kinase p38 (Mus musculus) (UniProt P47811+O08911+Q9WUI1+Q9Z1B7). Put plainly: Inhibition of p38 phosphorylation in LPS-activated C57bl/6 mouse peritoneal macrophages at 0.1 nM treated for 30 mins prior to LPS challenge by immunoblot analysis.
Data set [20] is filed under the species Mus musculus. Put plainly: Inhibition of ERK phosphorylation in LPS-activated C57bl/6 mouse peritoneal macrophages at 0.1 nM treated for 30 mins prior to LPS challenge by immunoblot analysis.
In data set [21] the test system is Peritoneal macrophage cell. Put plainly: Antiinflammatory activity in C57bl/6 mouse peritoneal macrophages assessed as reduction in LPS-induced TNF-alpha production at >=10 nM treated for 30 mins prior to LPS challenge measured after 6 hrs by ELISA. In kind it is functional, cell-based.

Calls of active or inactive are those of the source. The calls are words filed in the database; no cut-off is given here.

For `CCN(C)C(=O)Oc1ccc2c(c1)NCC2CCN(C)C.Cl` (stereo not given), the IC50 in [1] came out at 21300 nM; in [7] it was 2200 nM. Also, the “fold change (FC)” value in data set [2] stood at 10; in data set [3], 100. Besides, the Activity result in [4] and in data set [9] was “Non-toxic” throughout. For the same compound, the inhibition result in data set [5], in [6] and in data set [8] was “Active” each time.

In the case of `CCN(C)C(=O)Oc1cccc2c1C(CCN)CN2.Cl.Cl` (stereo not given), the inhibition result in data set [10], in data set [11] and in data set [14] was “Active” throughout. In addition, the results for the “fold change (FC)” value in [12] and in data set [13] were 10 and 100, respectively. Moreover, the Activity entry in data set [4] and in [9] was “Non-toxic” in each case. The compound further came in with an IC50 in data set [7] of 200 nM.

`CCN(C)C(=O)Oc1ccc2c(c1)NCC2CCC(=O)OC.Cl` (stereo not given): the inhibition result in [10], in [15] and in data set [14] was “Active” throughout. Also, the figures for the “fold change (FC)” value in data set [12] and in data set [13] were 10 and 100, respectively. The Activity result in data set [4] and in data set [9] was “Non-toxic” throughout. In [7], this compound had an IC50 of 3900 nM.

For `CCN(C)C(=O)Oc1cccc2c1C(CCCN)CN2.Cl` (stereo not given), the IC50 came out at 1800 nM in [1] and 1200 nM in data set [7]. For the same compound, the “fold change (FC)” value is on record as 10 in data set [2] and 100 in [3]. The inhibition entry in data set [11], in data set [6] and in [14] was “Active” each time. Also, the Activity entry in [4] and in data set [9] was “Non-toxic” in each case.

In the case of `CCN(C)C(=O)Oc1cccc2c1C(CCN(C)C)CN2.Cl` (stereo not given), the inhibition entry in data set [10], in data set [5] and in [8] was “Active” each time. Besides, the IC50 in data set [1] amounted to 1300 nM; in data set [7] it was 310 nM. Moreover, the “fold change (FC)” value in data set [12] worked out at 10; in data set [13] it was 100. Besides, the Activity result in data set [4] and in [9] was “Non-toxic” each time.

`CCN(C)C(=O)Oc1ccc2c(c1)NCC2CCCN.Cl` (stereo not given): the IC50 turned out to be 36000 nM in [1] and 4700 nM in [7]. Also, the “fold change (FC)” value in data set [2] is 10; in data set [3], 100. Also, the inhibition entry in [11], in [6] and in data set [14] was “Active” in each case. For the same compound, the Activity entry in [4] and in data set [9] was “Non-toxic” each time.

As to `CCN(C)C(=O)Oc1cccc2c1CCN2CCCN(C)C.Cl`, the IC50 was determined as 3700 nM in data set [1] and 900 nM in [7]. For the same compound, the “fold change (FC)” value in [2] came out at 10; in data set [3], 100. Besides, the Activity result in data set [4] and in data set [9] was “Non-toxic” throughout. Further, the inhibition result in data set [5], in [6] and in data set [8] was “Active” each time.

As to `CCN(C)C(=O)Oc1ccc2c(c1)N(CCC(=O)OC)CC2.Cl`, the Activity entry in [4] and in data set [9] was “Non-toxic” throughout. For the same compound, the IC50 in data set [7] turned out to be 6780 nM. Moreover, the inhibition entry in data set [16] and in data set [8] was “Active” in each case.

As to `CCN(C)C(=O)Oc1cccc2c1C(CCC(=O)OC)CN2.Cl` (stereo not given), the inhibition entry in data set [10], in [18], in data set [11], in data set [19] and in data set [14] was “Active” each time. The inhibition entry in [17] and in [20] was “inactive” throughout. Besides, the results for the “fold change (FC)” value in data set [12] and in data set [13] were 10 and 100, respectively. The Activity entry in data set [4] and in [9] was “Non-toxic” in each case. Moreover, the IC50 in data set [7] is 300 nM.

Consider `CCN(C)C(=O)Oc1ccc2c(c1)N(CCCN(C)C)CC2.Cl`, for which the IC50 was determined as 48000 nM in [1] and 4270 nM in data set [7]. The “fold change (FC)” value in data set [2] was 10; in [3], 100. In addition, the Activity entry in data set [4] and in data set [9] was “Non-toxic” in each case. Moreover, the inhibition entry in data set [5], in data set [6] and in data set [8] was “Active” in each case.

On to `CCN(C)C(=O)Oc1cccc2c1CCN2CCC(=O)OC.Cl`, for which the inhibition entry in [10], in data set [21] and in data set [8] was “Active” each time. In addition, the “fold change (FC)” value in data set [12] was determined as 10; in data set [13] it was 100. For the same compound, the Activity entry in data set [4] and in data set [9] was “Non-toxic” in each case. This compound also showed an IC50 in data set [7] of 700 nM.

Broadly, the IC50 is the concentration that gives 50% inhibition.
